Experiments:
AR mRNA = assay: AR RNA expression in LNCaP cells (complete, CSS, CSS+DHT medium); format: cell-based, human; details: for Percent expression of AR in LNCaP cells cultured in CSS + DHT medium: CSS + DHT (1 nM) medium; for Percent expression of AR in LNCaP cells cultured in CSS + DHT medium / Percent expression of AR in LNCaP cells cultured in CSS medium: 48 hrs; for Percent expression of AR in LNCaP cells cultured in complete medium: 48 hours
Experimental: Cells were plated at 1,000 cells per well. […] After an incubation period of 48 hours, RNA levels of AR, PSA and TMPRSS2 were measured.
Cells were plated at 2,000 cells per well and cultured in phenol red-free RPMI supplemented with 5% charcoal stripped serum (Gibco) media for 16 hours. […] After an incubation period of 4 hrs, DHT was added to the medium to a final concentration of 1 nM as indicated. RNAs were collected 48 hrs later and levels of AR, PSA and TMPRSS2 were measured.

MDA-MB-453 tumor = assay: Tumor volume in MDA-MB-453 breast cancer orthotopic model; format: in vivo, NSG mice; details: Study 2, MDA-MB-453 model, NSG mice, 50 mg/kg s.c. 5 days per week for 2 weeks
[1] = test system: prostate-specific antigen (PSA) mRNA; assay: Time-course PSA expression in C4-2B cells; format: cell-based, human
Experimental: C4-2B cells were plated at 1,000 cells per well in complete medium. […] ISIS 549148 was included as a negative control. […] After a treatment period of 8 hours, 24 hours, and 48 hours, AR expression was measured with primer probe set hAR-LTS00943. Results are presented in Tables 70-72 as percent expression of AR, relative to non-treated cells.
Expression analysis of prostate-specific antigen (PSA) and TMPRSS2 were also analyzed. Results are presented in Tables 73-75 as percent inhibition of PSA expression and Tables 76-78 as percent inhibition of TMPRSS2 expression, relative to non-treated cells.

full length AR mRNA = assay: Full-length AR RNA in VCaP cells (complete, CSS+DHT medium); format: cell-based, human; details: RNAiMax, 48 hrs
Experimental: Cells were plated at 10,000 cells per well. […] After an incubation period of 48 hrs, RNA levels of full length AR, the V7 variant, PSA and TMPRSS2 were measured.
After an incubation period of 48 hrs, RNA levels of full length AR, the V7 variant, PSA and TMPRSS2 were measured. The data is presented in Tables 108 expressed as percent expression of gene levels compared to the untreated control.
Cells were plated at 15,000 cells per well and cultured in CSS media for 16 hours. […] After 4 hrs, 1 nM DHT was added. […] After an incubation period of 48 hrs, RNA levels of AR, PSA and TMPRSS2 were measured.

C4-2 cells = assay: C4-2 cell proliferation (complete or CSS+DHT medium); format: cell-based, human; details: C4-2 cells, 5 days
Experimental: After a treatment period of 5 days in complete medium or CSS+1 nM DHT medium, the proliferative capacity of the cancer cells was measured with using CellTiter 96® AQueous One Solution or CellTiter-Glo® Cell Proliferation kit (Promega), following the manufacturer's instructions. […] The proliferative capacity of cells cultured in CSS medium without DHT is 17% of untreated control levels.

C4-2B cells = assay: C4-2B cell proliferation, ASO in combination with MDV3100 (Example 21); format: cell-based, human; details: for Proliferation (% untreated control) in C4-2B without MDV-3100: 5 days
Experimental: (§1) C4-2B cells were plated at 1,000 cells per well. […] ISIS 549148 was included as a negative control. […] After a treatment period of 5 days, the proliferative capacity of the cancer cells was measured with CellTiter 96® AQueous One Solution Cell Proliferation kit (Promega), following the manufacturer's instructions. […]

LNCaP cells = assay: LNCaP cell proliferation, ASO in combination with MDV3100 (Example 20); format: cell-based, human; details: for Proliferation (% untreated control) in LNCaP without MDV-3100: 5 days
Experimental: as §1, with “LNCaP” for “C4-2B”, “One or CellTiter-Glo®” for “One”

[2] = ASO dose 0.04 μM + 0.08 μM MDV-3100
[3] = ASO dose 0.04 μM + 0.4 μM MDV-3100
[4] = ASO dose 0.04 μM + 2.0 μM MDV-3100
[5] = ASO dose 0.04 μM + […] MDV-3100
[6] = ASO dose 0.08 μM + 0.08 μM MDV-3100
[7] = ASO dose 0.08 μM + 0.4 μM MDV-3100
[8] = ASO dose 0.08 μM + 2.0 μM MDV-3100
[9] = ASO dose 0.08 μM + […] MDV-3100
[10] = ASO dose 0.2 μM + 0.08 μM MDV-3100
[11] = ASO dose 0.2 μM + 0.4 μM MDV-3100
[12] = ASO dose 0.2 μM + 2.0 μM MDV-3100
[13] = ASO dose 1.0 μM + 0.08 μM MDV-3100
[14] = ASO dose 1.0 μM + 0.4 μM MDV-3100
[15] = ASO dose 1.0 μM + 2.0 μM MDV-3100

## GGCTACTACGCCGTCA (3-10-3 (S)-cEt gapmer, chemistry not fully specified) [ISIS 549148, reference compound]
AR mRNA; 0.04 μM
  Percent expression of AR in LNCaP cells cultured in CSS + DHT medium: 98%
  Percent expression of AR in LNCaP cells cultured in CSS medium: 106%
  Percent expression of AR in LNCaP cells cultured in complete medium: 102%
AR mRNA; 0.2 μM
  Percent expression of AR in LNCaP cells cultured in CSS + DHT medium: 102%
  Percent expression of AR in LNCaP cells cultured in CSS medium: 97%
AR mRNA; 1 μM
  Percent expression of AR in LNCaP cells cultured in CSS + DHT medium: 96%
  Percent expression of AR in LNCaP cells cultured in CSS medium: 96%
  Percent expression of AR in LNCaP cells cultured in complete medium: 109%
AR mRNA; 5.0 μM
  Percent expression of AR in LNCaP cells cultured in CSS medium: 104%
  Percent expression of AR in LNCaP cells cultured in complete medium: 109%
MDA-MB-453 tumor; Day 0
  Tumor volumes: 148
MDA-MB-453 tumor; Day 8
  Tumor volumes: 303
MDA-MB-453 tumor; Day 13
  Tumor volumes: 312
MDA-MB-453 tumor; Day 20
  Tumor volumes: 365
MDA-MB-453 tumor; Day 23
  Tumor volumes: 413
MDA-MB-453 tumor; Day 27
  Tumor volumes: 490
MDA-MB-453 tumor; Day 29
  Tumor volumes: 550
[1]; 0.04 μM
  Percent inhibition of PSA expression compared to the control group in 8 hours: 1%
  Percent inhibition of PSA expression compared to the control group in 24 hours: 22%
  Percent inhibition of PSA expression compared to the control group in 48 hours: 2%
[1]; 0.2 μM
  Percent inhibition of PSA expression compared to the control group in 8 hours: 8%
  Percent inhibition of PSA expression compared to the control group in 24 hours: 13%
  Percent inhibition of PSA expression compared to the control group in 48 hours: 0%
[1]; 1 μM
  Percent inhibition of PSA expression compared to the control group in 8 hours: 8%
  Percent inhibition of PSA expression compared to the control group in 24 hours: 16%
  Percent inhibition of PSA expression compared to the control group in 48 hours: 18%
[1]; 5.0 μM
  Percent inhibition of PSA expression compared to the control group in 8 hours: 0%
  Percent inhibition of PSA expression compared to the control group in 24 hours: 6%
  Percent inhibition of PSA expression compared to the control group in 48 hours: 10%
Full length AR mRNA; CSS medium, 1.34 nM
  Percent inhibition of full-length AR: 0%
Full length AR mRNA; CSS medium, 4.0 nM
  Percent inhibition of full-length AR: 0%
Full length AR mRNA; CSS medium, 13.4 nM
  Percent inhibition of full-length AR: 0%
Full length AR mRNA; CSS medium, 40 nM
  Percent inhibition of full-length AR: 0%
Full length AR mRNA; complete medium, 1.34 nM
  Percent inhibition of full-length AR: 0%
Full length AR mRNA; complete medium, 4.0 nM
  Percent inhibition of full-length AR: 8%
Full length AR mRNA; complete medium, 13.4 nM
  Percent inhibition of full-length AR: 5%
Full length AR mRNA; complete medium, 40 nM
  Percent inhibition of full-length AR: 17%
C4-2 cells; CSS + DHT medium, 0.04 μM
  Proliferation (% untreated control): 102 % untreated control
C4-2 cells; CSS + DHT medium, 0.2 μM
  Proliferation (% untreated control): 82 % untreated control
C4-2 cells; CSS + DHT medium, 1 μM
  Proliferation (% untreated control): 82 % untreated control
C4-2 cells; CSS + DHT medium, 5.0 μM
  Proliferation (% untreated control): 91 % untreated control
C4-2 cells; complete medium, 0.04 μM
  Proliferation (% untreated control): 106 % untreated control
C4-2 cells; complete medium, 0.2 μM
  Proliferation (% untreated control): 112 % untreated control
C4-2 cells; complete medium, 1 μM
  Proliferation (% untreated control): 91 % untreated control
C4-2 cells; complete medium, 5.0 μM
  Proliferation (% untreated control): 94 % untreated control
C4-2B cells; [2]
  Proliferation (% untreated control) in C4-2B with 0.08 μM MDV-3100: 125 % untreated control
C4-2B cells; [3]
  Proliferation (% untreated control) in C4-2B with 0.4 μM MDV-3100: 110 % untreated control
C4-2B cells; [4]
  Proliferation (% untreated control) in C4-2B with 2.0 μM MDV-3100: 40 % untreated control
C4-2B cells; [5]
  Proliferation (% untreated control) in C4-2B with […] MDV-3100: 107 % untreated control
C4-2B cells; ASO dose 0.04 μM
  Proliferation (% untreated control) in C4-2B without MDV-3100: 117 % untreated control
C4-2B cells; [6]
  Proliferation (% untreated control) in C4-2B with 0.08 μM MDV-3100: 84 % untreated control
C4-2B cells; [7]
  Proliferation (% untreated control) in C4-2B with 0.4 μM MDV-3100: 89 % untreated control
C4-2B cells; [8]
  Proliferation (% untreated control) in C4-2B with 2.0 μM MDV-3100: 47 % untreated control
C4-2B cells; [9]
  Proliferation (% untreated control) in C4-2B with […] MDV-3100: 110 % untreated control
C4-2B cells; ASO dose 0.08 μM
  Proliferation (% untreated control) in C4-2B without MDV-3100: 111 % untreated control
C4-2B cells; [10]
  Proliferation (% untreated control) in C4-2B with 0.08 μM MDV-3100: 123 % untreated control
C4-2B cells; [11]
  Proliferation (% untreated control) in C4-2B with 0.4 μM MDV-3100: 88 % untreated control
C4-2B cells; [12]
  Proliferation (% untreated control) in C4-2B with 2.0 μM MDV-3100: 52 % untreated control
C4-2B cells; ASO dose 0.2 μM + […] MDV-3100
  Proliferation (% untreated control) in C4-2B with […] MDV-3100: 124 % untreated control
C4-2B cells; ASO dose 0.2 μM
  Proliferation (% untreated control) in C4-2B without MDV-3100: 118 % untreated control
C4-2B cells; [13]
  Proliferation (% untreated control) in C4-2B with 0.08 μM MDV-3100: 114 % untreated control
C4-2B cells; [14]
  Proliferation (% untreated control) in C4-2B with 0.4 μM MDV-3100: 88 % untreated control
C4-2B cells; [15]
  Proliferation (% untreated control) in C4-2B with 2.0 μM MDV-3100: 59 % untreated control
C4-2B cells; ASO dose 1.0 μM + […] MDV-3100
  Proliferation (% untreated control) in C4-2B with […] MDV-3100: 103 % untreated control
C4-2B cells; ASO dose 1.0 μM
  Proliferation (% untreated control) in C4-2B without MDV-3100: 126 % untreated control
LNCaP cells; [2]
  Proliferation (% untreated control) in LNCaP with 0.08 μM MDV-3100: 101 % untreated control
LNCaP cells; [3]
  Proliferation (% untreated control) in LNCaP with 0.4 μM MDV-3100: 57 % untreated control
LNCaP cells; [4]
  Proliferation (% untreated control) in LNCaP with 2.0 μM MDV-3100: 42 % untreated control
LNCaP cells; [5]
  Proliferation (% untreated control) in LNCaP with […] MDV-3100: 86 % untreated control
LNCaP cells; ASO dose 0.04 μM
  Proliferation (% untreated control) in LNCaP without MDV-3100: 101 % untreated control
LNCaP cells; [6]
  Proliferation (% untreated control) in LNCaP with 0.08 μM MDV-3100: 93 % untreated control
LNCaP cells; [7]
  Proliferation (% untreated control) in LNCaP with 0.4 μM MDV-3100: 65 % untreated control
LNCaP cells; [8]
  Proliferation (% untreated control) in LNCaP with 2.0 μM MDV-3100: 39 % untreated control
LNCaP cells; [9]
  Proliferation (% untreated control) in LNCaP with […] MDV-3100: 106 % untreated control
LNCaP cells; ASO dose 0.08 μM
  Proliferation (% untreated control) in LNCaP without MDV-3100: 104 % untreated control
LNCaP cells; [10]
  Proliferation (% untreated control) in LNCaP with 0.08 μM MDV-3100: 89 % untreated control
LNCaP cells; [11]
  Proliferation (% untreated control) in LNCaP with 0.4 μM MDV-3100: 50 % untreated control
LNCaP cells; [12]
  Proliferation (% untreated control) in LNCaP with 2.0 μM MDV-3100: 41 % untreated control
LNCaP cells; ASO dose 0.2 μM + […] MDV-3100
  Proliferation (% untreated control) in LNCaP with […] MDV-3100: 83 % untreated control
LNCaP cells; ASO dose 0.2 μM
  Proliferation (% untreated control) in LNCaP without MDV-3100: 91 % untreated control
LNCaP cells; [13]
  Proliferation (% untreated control) in LNCaP with 0.08 μM MDV-3100: 90 % untreated control
LNCaP cells; [14]
  Proliferation (% untreated control) in LNCaP with 0.4 μM MDV-3100: 48 % untreated control
LNCaP cells; [15]
  Proliferation (% untreated control) in LNCaP with 2.0 μM MDV-3100: 32 % untreated control
LNCaP cells; ASO dose 1.0 μM + […] MDV-3100
  Proliferation (% untreated control) in LNCaP with […] MDV-3100: 59 % untreated control
LNCaP cells; ASO dose 1.0 μM
  Proliferation (% untreated control) in LNCaP without MDV-3100: 82 % untreated control

Reference: USRE48461E1, “Modulation of androgen receptor expression” (Ionis Pharmaceuticals, Inc., priority 2012, dated 2021)
